# Legend:
# U-937 [1] = assay: Cytotoxicity against human U-937 cells assessed as cell viability at 0.37 uM measured after 48 hrs by CCK8 assay relative to control; format: functional; settings: read-out: Activity
# HeLa = assay: Cytotoxicity against human HeLa cells assessed as reduction in cell viability measured after 72 hrs by CCK8 assay; format: functional, cell-based; settings: Homo sapiens, HeLa, 72 h; read-out: IC50
# U-937 [2] = assay: Induction of apoptosis in human U-937 cells assessed as late apoptotic cells at 2 uM measured after 48 hrs by annexinV/FITC-propidium iodide staining based flow cytometry (reference value: 3.27 to 3.41 %); format: functional
# K562 [3] = assay: Cytotoxicity against human K562 cells assessed as cell viability at 3.3 uM measured after 72 hrs by CCK8 assay relative to control; format: functional; settings: read-out: Activity
# U-937 [4] = assay: Induction of apoptosis in human U-937 cells assessed as early apoptotic cells at 2 uM measured after 24 hrs by annexinV/FITC-propidium iodide staining based flow cytometry (reference value: 1.28 to 1.68 %); format: functional
# U-937 [5] = assay: Induction of apoptosis in human U-937 cells assessed as late apoptotic cells at 1 uM measured after 48 hrs by annexinV/FITC-propidium iodide staining based flow cytometry (reference value: 3.27 to 3.41 %); format: functional
# U-937 [6] = assay: Induction of apoptosis in human U-937 cells assessed as necrotic cells at 0.5 uM measured after 48 hrs by annexinV/FITC-propidium iodide staining based flow cytometry (reference value: 0.794 to 0.955 %); format: functional
# K562 [7] = assay: Cytotoxicity against human K562 cells assessed as cell viability at 1.1 uM measured after 24 hrs by CCK8 assay relative to control; format: functional; settings: read-out: Activity
# U-937 [8] = assay: Induction of apoptosis in human U-937 cells assessed as necrotic cells at 1 uM measured after 48 hrs by annexinV/FITC-propidium iodide staining based flow cytometry (reference value: 0.794 to 0.955 %); format: functional
# K562 [9] = assay: Cytotoxicity against human K562 cells assessed as cell viability at 3.3 uM measured after 24 hrs by CCK8 assay relative to control; format: functional; settings: read-out: Activity
# U-937 [10] = assay: Cytotoxicity against human U-937 cells assessed as cell viability at 0.37 uM measured after 24 hrs by CCK8 assay relative to control; format: functional; settings: read-out: Activity
# U-937 [11] = assay: Induction of apoptosis in human U-937 cells assessed as apoptotic ratio at 0.5 uM measured after 24 hrs by annexinV/FITC-propidium iodide staining based flow cytometry (reference value: 3.7 +/- 0.3 %); format: functional
# U-937 [12] = assay: Cytotoxicity against human U-937 cells assessed as reduction in cell viability measured after 24 to 72 hrs by CCK8 assay; format: functional, cell-based; settings: dose 0.37-3.3 µM, time 24-72 hrs
# U-937 [13] = assay: Induction of apoptosis in human U-937 cells assessed as necrotic cells at 0.5 uM measured after 24 hrs by annexinV/FITC-propidium iodide staining based flow cytometry (reference value: 1.12 to 1.48 %); format: functional
# K562 [14] = assay: Cytotoxicity against human K562 cells assessed as cell viability at 0.37 uM measured after 24 hrs by CCK8 assay relative to control; format: functional; settings: read-out: Activity
# U-937 [15] = assay: Induction of apoptosis in human U-937 cells assessed as early apoptotic cells at 1 uM measured after 48 hrs by annexinV/FITC-propidium iodide staining based flow cytometry (reference value: 1.78 to 1.88 %); format: functional
# U-937 [16] = assay: Induction of apoptosis in human U-937 cells assessed as apoptotic ratio at 1 uM measured after 24 hrs by annexinV/FITC-propidium iodide staining based flow cytometry (reference value: 3.7 +/- 0.3 %); format: functional
# U-937 [17] = assay: Induction of apoptosis in human U-937 cells assessed as necrotic cells at 1 uM measured after 24 hrs by annexinV/FITC-propidium iodide staining based flow cytometry (reference value: 1.12 to 1.48 %); format: functional
# U-937 [18] = assay: Induction of apoptosis in human U-937 cells assessed as late apoptotic cells at 1 uM measured after 24 hrs by annexinV/FITC-propidium iodide staining based flow cytometry (reference value: 2.18 to 2.22 %); format: functional
# U-937 [19] = assay: Cytotoxicity against human U-937 cells assessed as reduction in cell viability at 0.37 to 3.3 uM by CCK8 assay; format: functional, cell-based; settings: dose 0.37-3.3 µM, TDE = time-dependent effect
# K562 [20] = assay: Cytotoxicity against human K562 cells assessed as reduction in cell viability measured after 24 to 72 hrs by CCK8 assay; format: functional, cell-based; settings: dose 0.37-3.3 µM, time 24-72 hrs
# K562 [21] = assay: Cytotoxicity against human K562 cells assessed as reduction in cell viability measured after 72 hrs by CCK8 assay; format: functional, cell-based; settings: Homo sapiens, K562, 72 h; read-out: IC50
# MCF7 = assay: Cytotoxicity against human MCF7 cells assessed as reduction in cell viability measured after 72 hrs by CCK8 assay; format: functional, cell-based; settings: Homo sapiens, MCF7, 72 h; read-out: IC50
# U-937 [22] = assay: Cytotoxicity against human U-937 cells assessed as cell viability at 1.1 uM measured after 72 hrs by CCK8 assay relative to control; format: functional; settings: read-out: Activity
# U-937 [23] = assay: Induction of apoptosis in human U-937 cells assessed as necrotic cells at 2 uM measured after 48 hrs by annexinV/FITC-propidium iodide staining based flow cytometry (reference value: 0.794 to 0.955 %); format: functional
# U-937 [24] = assay: Induction of apoptosis in human U-937 cells assessed as late apoptotic cells at 0.5 uM measured after 24 hrs by annexinV/FITC-propidium iodide staining based flow cytometry (reference value: 2.18 to 2.22 %); format: functional
# U-937 [25] = assay: Induction of apoptosis in human U-937 cells assessed as viable cells at 0.5 uM measured after 48 hrs by annexinV/FITC-propidium iodide staining based flow cytometry (reference value: 93.7 to 94.2 %); format: functional; settings: read-out: Activity
# K562 [26] = assay: Cytotoxicity against human K562 cells assessed as cell viability at 0.37 uM measured after 48 hrs by CCK8 assay relative to control; format: functional; settings: read-out: Activity
# U-937 [27] = assay: Cytotoxicity against human U-937 cells assessed as cell viability at 3.3 uM measured after 72 hrs by CCK8 assay relative to control; format: functional; settings: read-out: Activity
# U-937 [28] = assay: Induction of apoptosis in human U-937 cells assessed as apoptotic ratio at 1 uM measured after 48 hrs by annexinV/FITC-propidium iodide staining based flow cytometry (reference value: 5.2 +/- 0.2 %); format: functional
# HL-60 = assay: Cytotoxicity against human HL-60 cells assessed as reduction in cell viability measured after 72 hrs by CCK8 assay; format: functional, cell-based; settings: Homo sapiens, HL-60, 72 h; read-out: IC50
# K562 [29] = assay: Cytotoxicity against human K562 cells assessed as reduction in cell viability at 0.37 to 3.3 uM by CCK8 assay; format: functional, cell-based; settings: dose 0.37-3.3 µM, time 24-72 hrs, TDE = time-dependent effect
# U-937 [30] = assay: Induction of apoptosis in human U-937 cells assessed as early apoptotic cells at 1 uM measured after 24 hrs by annexinV/FITC-propidium iodide staining based flow cytometry (reference value: 1.28 to 1.68 %); format: functional
# U-937 [31] = assay: Induction of apoptosis in human U-937 cells assessed as early apoptotic cells at 0.5 uM measured after 24 hrs by annexinV/FITC-propidium iodide staining based flow cytometry (reference value: 1.28 to 1.68 %); format: functional
# K562 [32] = assay: Cytotoxicity against human K562 cells assessed as cell viability at 0.37 uM measured after 72 hrs by CCK8 assay relative to control; format: functional; settings: read-out: Activity
structure (smiles),measurement,setting,value
C=CCn1c(=O)/c(=C/CCCC)[nH]c(=O)/c1=C/c1ccc(OC)cc1,viability at 0.37 µM,U-937 [1],74.9%
same,IC50,HeLa,900 nM
same,Activity,U-937 [2],35.1%
same,viability at 3.3 µM,K562 [3],3.5%
same,Activity,U-937 [4],9.66%
same,Activity,U-937 [5],14.5%
same,Activity,U-937 [6],1.05%
same,viability at 1.1 µM,K562 [7],50%
same,Activity,U-937 [8],1.04%
same,viability at 3.3 µM,K562 [9],31%
same,viability at 0.37 µM,U-937 [10],70.5%
same,Activity,U-937 [11],10.4%
same,Activity,U-937 [12],Dose-dependent effect
same,Activity,U-937 [13],1.07%
same,viability at 0.37 µM,K562 [14],87.8%
same,Activity,U-937 [15],10.8%
same,Activity,U-937 [16],16%
same,Activity,U-937 [17],1.13%
same,Activity,U-937 [18],8.23%
same,Activity,U-937 [19],Tde
same,Activity,K562 [20],Dose-dependent effect
same,IC50,K562 [21],600 nM
same,IC50,MCF7,1900 nM
same,viability at 1.1 µM,U-937 [22],3.3%
same,Activity,U-937 [23],1.26%
same,Activity,U-937 [24],6.11%
same,viability at 0.5 µM,U-937 [25],81.4%
same,viability at 0.37 µM,K562 [26],90.9%
same,viability at 3.3 µM,U-937 [27],0%
same,Activity,U-937 [28],25.8%
same,IC50,HL-60,900 nM
same,Activity,K562 [29],Tde
same,Activity,U-937 [30],7.63%
same,Activity,U-937 [31],4.09%
same,viability at 0.37 µM,K562 [32],86.2%

# Reference: ChEMBL document CHEMBL4715742, “Design, synthesis and cytotoxic activities of novel 2,5-diketopiperazine derivatives” (Eur J Med Chem, 2016)
